One series concerns the target T1, 5-HT3R (Cavia porcellus, UniProt O70212).
T1 sequence (O70212 20-490): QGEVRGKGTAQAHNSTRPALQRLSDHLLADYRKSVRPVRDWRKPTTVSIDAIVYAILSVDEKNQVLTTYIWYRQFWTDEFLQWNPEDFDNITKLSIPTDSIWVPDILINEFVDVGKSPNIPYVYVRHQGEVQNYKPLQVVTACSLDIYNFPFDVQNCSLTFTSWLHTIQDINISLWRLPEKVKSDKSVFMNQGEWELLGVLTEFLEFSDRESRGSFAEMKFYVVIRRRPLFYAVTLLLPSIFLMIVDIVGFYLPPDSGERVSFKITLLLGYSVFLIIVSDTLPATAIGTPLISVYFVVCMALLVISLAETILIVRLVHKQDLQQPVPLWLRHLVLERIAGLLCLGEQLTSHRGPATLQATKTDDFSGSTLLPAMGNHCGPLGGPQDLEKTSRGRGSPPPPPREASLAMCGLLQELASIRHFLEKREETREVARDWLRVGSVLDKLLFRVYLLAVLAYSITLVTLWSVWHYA
The note with it: for antagonist effect: percent inhibition of response to 5-HT 3 μM (contraction of guinea pig ileum); for functional classification at 5-HT3R: guinea pig ileum contraction.

Series [1] has as its target T2, h5-HT6R (Homo sapiens, UniProt P50406). Put plainly: Inhibition of 5-CT-induced cAMP production in 1321N1 cells expressing h5-HT6R. On the set-up: host or cells: 1321N1. The class given is cell-based. The note with it: for Kb: cAMP; for antagonist effect: 10^–6 M, percent inhibition of control agonist response. (In general: cAMP levels reflect the balance of adenylyl cyclase and phosphodiesterase activity.)

The test system of series [2] is male Sprague–Dawley rats. The note with it: AUC −25 to 0 min before PCP.
Method: (§1) Both spontaneous and PCP-induced locomotor activity were measured automatically in Opto-Varimex-4 Auto-Tracks (Columbus Instruments, Ohio) located in sound-attenuated and ventilated boxes. The Auto-Track System sensed the motion with a grid of infrared photocells (16 beams per axis) surrounding the arena.
(§2) Following 30 min of spontaneous activity measurement, the animals were removed from the boxes, injected with phencyclidine hydrochloride (PCP) at a dose of 5 mg/kg (SC), and then PCP-induced locomotor activity was measured for 120 min.
(§3) The measurements (30 min) preceding PCP administration indicate drug-induced effects on spontaneous locomotor activity. The second period (measured in the same animals at 0-120 min following PCP administration) indicates drug-induced alteration of PCP-induced hyperactivity.
(§4) Mixed-design two-way ANOVA with treatment(s) as between-subject factor and time as repeated measures factor on raw distance data, and separate one-way or two-way ANOVAs (on AUC data) followed by Dunnett’s multiple comparison, LSD or Tukey’s post hoc tests as well as analyses of contrast coefficients (Statistica 12 for Windows, IBM SPSS ver 26 for Mac) were used to assess the effects of compounds on activity.
Another series deals with h5-HT1A (Homo sapiens, UniProt P08908). The conditions noted are these: 5-HT1AR.
Sequence of h5-HT1A (P08908 whole entry): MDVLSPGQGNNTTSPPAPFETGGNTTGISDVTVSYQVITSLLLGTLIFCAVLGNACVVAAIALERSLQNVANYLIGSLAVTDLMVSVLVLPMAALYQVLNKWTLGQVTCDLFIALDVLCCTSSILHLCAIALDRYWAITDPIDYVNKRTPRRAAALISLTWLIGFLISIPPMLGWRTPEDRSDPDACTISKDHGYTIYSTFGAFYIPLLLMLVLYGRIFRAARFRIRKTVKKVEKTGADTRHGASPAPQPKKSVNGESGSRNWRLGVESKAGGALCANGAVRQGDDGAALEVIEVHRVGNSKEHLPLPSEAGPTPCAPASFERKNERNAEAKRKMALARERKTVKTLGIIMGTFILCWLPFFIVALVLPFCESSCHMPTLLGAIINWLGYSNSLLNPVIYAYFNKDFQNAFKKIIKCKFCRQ
For another series, the target named is h5-HT2AR (Homo sapiens, UniProt P28223). The conditions noted are these: 5-HT2AR.
Sequence of h5-HT2AR (P28223 whole entry, looked up): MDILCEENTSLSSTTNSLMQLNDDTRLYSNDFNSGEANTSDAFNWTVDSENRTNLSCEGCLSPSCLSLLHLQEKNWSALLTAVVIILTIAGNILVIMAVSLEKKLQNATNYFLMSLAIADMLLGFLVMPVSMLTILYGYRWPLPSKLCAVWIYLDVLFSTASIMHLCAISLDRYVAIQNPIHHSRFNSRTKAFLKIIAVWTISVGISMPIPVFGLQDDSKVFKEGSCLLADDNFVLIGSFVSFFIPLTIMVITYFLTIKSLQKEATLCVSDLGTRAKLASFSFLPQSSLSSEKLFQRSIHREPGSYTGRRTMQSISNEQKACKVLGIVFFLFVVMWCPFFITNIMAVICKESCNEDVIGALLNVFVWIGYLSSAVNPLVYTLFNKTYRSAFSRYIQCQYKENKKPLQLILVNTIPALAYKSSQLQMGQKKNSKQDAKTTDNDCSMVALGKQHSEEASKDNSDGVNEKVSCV
The next series has as its target hD2L (Homo sapiens, UniProt P14416). The conditions noted are these: D2R.
Another series addresses h5-HT7b (Homo sapiens, UniProt P34969). The conditions noted are these: 5-HT7R.
For series [3], the target named is T2, h5-HT6R.
Method: (§5) For membrane preparation, cells after reaching 90% confluence, were washed with phosphate-buffered saline (PBS), and pelleted by centrifugation (200 × g) in PBS containing 0.1 mM EDTA and 1 mM dithiothreitol.
(§6) The total reaction volume was 200 μL. The incubation process was terminated by filtration through UniFilter-96 (PerkinElmer) plates with the FilterMate Universal Harvester (PerkinElmer, #C961962), and radioactivity retained on the filters was quantified on a MicroBeta counter for radiometric detection (PerkinElmer). […] To evaluate the level of nonspecific signal 10 μM of 5-HT for 5-HT1AR and 5-HT7R, 20 μM of mianserin for 5-HT2AR, 10 μM of methiothepine for 5-HT6R and 10 μM of haloperidol for D2LR were used. […] The acquired results were presented as the mean of at least two independent experiments.
In another series the target is h5-HT3R (Homo sapiens, UniProt P46098). The note with it: inhibition of inward currents in response to 5-HT (EC80).
Sequence of h5-HT3R (P46098 24-478): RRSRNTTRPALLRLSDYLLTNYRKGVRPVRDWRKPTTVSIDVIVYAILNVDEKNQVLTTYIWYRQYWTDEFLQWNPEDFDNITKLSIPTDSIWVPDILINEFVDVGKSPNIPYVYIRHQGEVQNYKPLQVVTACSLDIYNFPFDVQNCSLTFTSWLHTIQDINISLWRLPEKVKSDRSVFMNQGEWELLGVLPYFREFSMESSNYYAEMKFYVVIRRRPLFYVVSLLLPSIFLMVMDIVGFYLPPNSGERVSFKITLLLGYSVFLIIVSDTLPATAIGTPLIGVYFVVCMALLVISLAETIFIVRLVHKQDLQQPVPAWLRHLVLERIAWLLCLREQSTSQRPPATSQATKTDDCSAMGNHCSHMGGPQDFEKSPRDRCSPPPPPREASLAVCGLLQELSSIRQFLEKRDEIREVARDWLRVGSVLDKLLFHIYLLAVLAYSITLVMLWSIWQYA
In series [4] the test system is male Sprague–Dawley rats.
Method: as §1, §2, §3, §4
Setting [5] is: HEK cells stably expressing h5-HT6R.

Each structure is given as a SMILES string. Structures can show the parent of a compound that is named as a salt. Where two headings read alike, the source gives them in different places. Where only a bound is given, the exact number is not on record here.

By Ki is commonly meant the dissociation constant of the complex between target and ligand, obtained from inhibition or displacement. Read a low Ki as higher affinity. What is called IC50 is the concentration that inhibits the measured activity by half. What is called melting point is the temperature of the solid-liquid transition.

T2 sequence (P50406 whole entry): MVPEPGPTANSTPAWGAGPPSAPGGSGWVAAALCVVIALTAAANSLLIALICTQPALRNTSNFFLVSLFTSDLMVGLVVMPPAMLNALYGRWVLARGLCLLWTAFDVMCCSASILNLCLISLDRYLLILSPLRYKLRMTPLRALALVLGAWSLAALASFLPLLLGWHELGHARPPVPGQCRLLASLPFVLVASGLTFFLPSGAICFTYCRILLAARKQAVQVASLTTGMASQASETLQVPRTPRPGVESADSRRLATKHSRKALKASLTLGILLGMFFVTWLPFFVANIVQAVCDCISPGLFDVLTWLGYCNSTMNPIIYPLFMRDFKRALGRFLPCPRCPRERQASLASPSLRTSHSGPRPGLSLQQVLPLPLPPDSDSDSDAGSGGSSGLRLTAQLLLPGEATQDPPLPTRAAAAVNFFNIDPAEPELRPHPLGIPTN
Sequence of h5-HT7b (P34969 1-432 limits assumed): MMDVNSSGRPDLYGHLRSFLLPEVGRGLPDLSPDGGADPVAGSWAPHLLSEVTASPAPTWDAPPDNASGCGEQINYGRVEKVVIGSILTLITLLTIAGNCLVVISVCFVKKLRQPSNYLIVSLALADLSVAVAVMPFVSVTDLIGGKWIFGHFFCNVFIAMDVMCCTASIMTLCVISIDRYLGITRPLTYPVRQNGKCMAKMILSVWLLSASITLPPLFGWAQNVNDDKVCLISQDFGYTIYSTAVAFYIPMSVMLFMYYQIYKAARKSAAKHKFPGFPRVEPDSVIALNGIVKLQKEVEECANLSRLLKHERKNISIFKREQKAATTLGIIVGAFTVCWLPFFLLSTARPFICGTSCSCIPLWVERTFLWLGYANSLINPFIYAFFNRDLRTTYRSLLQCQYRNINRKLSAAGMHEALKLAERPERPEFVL
Sequence of hD2L (P14416 whole entry): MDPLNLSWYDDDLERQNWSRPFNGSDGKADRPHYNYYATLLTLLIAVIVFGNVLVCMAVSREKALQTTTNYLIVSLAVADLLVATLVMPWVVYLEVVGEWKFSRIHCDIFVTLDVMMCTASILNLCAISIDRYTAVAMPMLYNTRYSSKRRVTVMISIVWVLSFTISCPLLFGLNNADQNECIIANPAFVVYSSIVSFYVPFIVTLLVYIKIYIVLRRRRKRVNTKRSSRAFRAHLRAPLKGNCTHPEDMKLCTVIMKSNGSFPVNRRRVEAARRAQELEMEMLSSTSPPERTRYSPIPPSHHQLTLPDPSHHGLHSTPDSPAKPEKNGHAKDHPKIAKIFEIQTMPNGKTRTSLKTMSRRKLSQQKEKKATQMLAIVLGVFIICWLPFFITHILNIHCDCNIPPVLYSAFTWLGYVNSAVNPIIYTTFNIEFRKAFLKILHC
Method for h5-HT1A: as §5, §6
Method for h5-HT2AR: as §5, §6
Method for h5-HT3R: All recordings were obtained from a holding potential of -60 mV. To establish the baseline response, serotonin was added at the concentration corresponding to its EC80 value. Subsequently, the test compound was characterized in a dose–response protocol at the concentration ranges from 10^–6 to 10^–11 M, with 30 s preincubation, followed by the addition of 5-HT at its EC80 in the presence of the compound for 2 s.
Peak inward currents were measured in response to the serotonin additions in the presence of a single concentration of the compound. Obtained data have been normalized to the baseline peak current induced by the addition of EC80 serotonin for 2 s, according to eq 1 [drawing 4] 1 Received data were analyzed using a four-parameter logistic equation in GraphPad Prism software.
Method for h5-HT7b: as §5, §6
Method for hD2L: as §5, §6

As to `Cc1nccn1CC1CCc2c(c3ccccc3n2C)C1=O` (stereo not drawn) [ondansetron, reference compound], on 5-HT3R (antagonist potency, Schild analysis, guinea pig ileum), the pA2 result is given as “pA2 = 7.11 ± 0.12”. Further, the Kb at h5-HT6R [1] (read-out: Kb) was found to be 58200 nM. In addition, the “effect on spontaneous activity” value in the series with male Sprague–Dawley rats [2] (ondansetron 0.5 mg/kg IP) is “neither compound affected spontaneous activity”.
For `O=S(=O)(c1cccc(Cl)c1)n1ccc2c(N3CCNCC3)nc3ccccc3c21` [Compound 18, 1-[(3-Chlorophenyl)sulfonyl]-4-(piperazin-1-yl)-1H-pyrrolo[3,2-c]quinoline dihydrochloride], the Ki came to 773 nM at h5-HT1A, 1670 nM at h5-HT2AR, 1340 nM on hD2L and 1790 nM at h5-HT7b. In addition, the antagonist effect is recorded as 11% on 5-HT3R (100 nM) and 72% at 5-HT3R (300 nM).
Consider `O=S(=O)(c1ccc(C(F)(F)F)cc1)n1ccc2c(N3CCNCC3)nc3ccccc3c21` [Compound 23, 1-{[4-(Trifluoromethyl)phenyl]sulfonyl}-4-(piperazin-1-yl)-1H-pyrrolo[3,2-c]quinoline dihydrochloride], for which the Ki on h5-HT6R [3] (setting [5]) turned out to be 34 nM. The compound also returned an antagonist effect on h5-HT6R [1] of 63%.
`O=C1c2cccc3c2[C@H](CCC3)CN1[C@@H]1CN2CCC1CC2` [palonosetron]: the 50% inhibitory concentration (IC50) against h5-HT3R is 1.7 nM.
Turning to `Cc1cccc(S(=O)(=O)n2ccc3c(N4CCNCC4)nc4ccccc4c32)c1` [Compound 20, 1-[(3-Methylphenyl)sulfonyl]-4-(piperazin-1-yl)-1H-pyrrolo[3,2-c]quinoline dihydrochloride], the inhibition constant (Ki) is 760 nM at h5-HT1A, 4630 nM at h5-HT2AR, 2160 nM at hD2L and 4140 nM on h5-HT7b. The antagonist effect at 5-HT3R (30 nM) came to 20%; on 5-HT3R (100 nM), 40%.
Turning to `COc1ccc(S(=O)(=O)Nc2cc(Cl)cc(Cl)c2OC)cc1N1CCNCC1` [SB399885], the “effect on PCP-induced hyperactivity” value with male Sprague–Dawley rats [4] (SB399885 1 mg/kg IP, AUC post-PCP vs vehicle) is on record as “enhances PCP-induced hyperactivity compared with vehicle”; in the series with male Sprague–Dawley rats [4] (SB399885 alone IP, doses up to 9 mg/kg, AUC 1st and 2nd hour post-PCP), “did not affect PCP-induced hyperactivity”. Besides, the results for the “effect on spontaneous activity” value with male Sprague–Dawley rats [2] (SB399885 1 mg/kg IP) and in the series with male Sprague–Dawley rats [2] (SB399885 9 mg/kg IP) were “neither compound affected spontaneous activity” and “sedative-like action”, respectively.
In turn, `c1ccc2c(c1)nc(N1CCNCC1)c1cc[nH]c12` [Compound 5e, 4-(Piperazin-1-yl)-1H-pyrrolo[3,2-c]quinoline] gave a Ki at h5-HT6R [3] of 757 nM. In addition, the “functional classification at 5-HT3R” value on 5-HT3R is reported as “partial agonist”. Further, at h5-HT6R [1] (Kb), the Kb is > 10000 nM.
Consider `CC(C)c1ccc(S(=O)(=O)n2ccc3c(N4CCNCC4)nc4ccccc4c32)cc1` [Compound 24, 1-[(4-iso-Propylphenyl)sulfonyl]-4-(piperazin-1-yl)-1H-pyrrolo[3,2-c]quinoline dihydrochloride], for which the affinity on h5-HT6R [3] (setting [5]) corresponds to a Ki of 14 nM. In addition, the antagonist effect on 5-HT3R (300 nM) is 38 (300 nM) %; on h5-HT6R [1], 65%.
As for `O=S(=O)(c1ccccc1)n1ccc2c(N3CCNCC3)nccc21` [II, reference compound], at h5-HT6R [3], the affinity corresponds to a Ki of 6 nM. The same compound returned a Kb on h5-HT6R [1] (Kb) of 1 nM.
Consider `CC(C)c1ccc(S(=O)(=O)n2ccc3c(N4CCNCC4)nc4ccccc4c32)cc1` (as salt: hydrochloride) [Compound 24, 1-[(4-iso-Propylphenyl)sulfonyl]-4-(piperazin-1-yl)-1H-pyrrolo[3,2-c]quinoline dihydrochloride], for which the melting point lay in the range of 212 to 214 °C.
Regarding `O=S(=O)(c1ccc(F)cc1)n1ccc2c(N3CCNCC3)nc3ccccc3c21` [Compound 22, 1-[(4-Fluorophenyl)sulfonyl]-4-(piperazin-1-yl)-1H-pyrrolo[3,2-c]quinoline dihydrochloride], the Ki at h5-HT6R [3] (setting [5]) was found to be 18 nM. Moreover, the antagonist effect at 5-HT3R (300 nM) was 48 (300 nM) %; at h5-HT6R [1], 72%.
`O=S(=O)(c1ccccc1)n1ccc2c(N3CCNCC3)nc3ccccc3c21` (as salt: hydrochloride) [Compound 7, 1-(Phenylsulfonyl)-4-(piperazin-1-yl)-1H-pyrrolo[3,2-c]quinoline dihydrochloride] had a melting point of 130 to 132 °C.
In turn, `O=S(=O)(c1ccccc1Br)n1ccc2c(N3CCNCC3)nc3ccccc3c21` (as salt: hydrochloride) [Compound 15, 1-[(2-Bromophenyl)sulfonyl]-4-(piperazin-1-yl)-1H-pyrrolo[3,2-c]quinoline dihydrochloride] showed a melting point of 158 to 160 °C.
As for `Cc1cccc(S(=O)(=O)n2ccc3c(N4CCNCC4)nc4ccccc4c32)c1` (as salt: hydrochloride) [Compound 20, 1-[(3-Methylphenyl)sulfonyl]-4-(piperazin-1-yl)-1H-pyrrolo[3,2-c]quinoline dihydrochloride], the melting point lay within 179 to 181 °C.
`O=S(=O)(c1cccc2ccccc12)n1ccc2c(N3CCNCC3)nc3ccccc3c21` (as salt: hydrochloride) came in with a melting point of 218 to 220 °C.
On to `CN1CCN(c2nc3ccccc3c3[nH]ccc23)CC1` [Compound 5d, 4-(4-Methylpiperazin-1-yl)-1H-pyrrolo[3,2-c]quinoline], for which the Ki on h5-HT6R [3] amounted to 245 nM. Also, the “functional classification at 5-HT3R” value at 5-HT3R is recorded as “agonist”. Besides, the Kb at h5-HT6R [1] (Kb) is > 10000 nM.
As for `O=S(=O)(c1ccccc1Cl)n1ccc2c(N3CCNCC3)nc3ccccc3c21` (as salt: hydrochloride), the melting point was 157 to 159 °C.
In turn, `O=S(=O)(c1ccccc1Br)n1ccc2c(N3CCNCC3)nc3ccccc3c21` [Compound 15, 1-[(2-Bromophenyl)sulfonyl]-4-(piperazin-1-yl)-1H-pyrrolo[3,2-c]quinoline dihydrochloride] yielded a Ki at h5-HT6R [3] (setting [5]) of 13 nM. The compound further came in with an antagonist effect at h5-HT6R [1] of 69%.
For `O=S(=O)(c1cccc(Cl)c1)n1ccc2c(N3CCNCC3)nc3ccccc3c21` (as salt: hydrochloride) [Compound 18, 1-[(3-Chlorophenyl)sulfonyl]-4-(piperazin-1-yl)-1H-pyrrolo[3,2-c]quinoline dihydrochloride], the melting point is 161 to 163 °C.
